Experimental data taken from PubChem BioAssay (NCI).
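Briefly, cells in 96-well plates were exposed to five compound concentrations for 48 h, and endpoints were estimated by linear interpolation. TGI is the concentration that stops growth completely.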

Key:
Test in all cases: NCI tumour cell line growth inhibition, 48 h
OVCAR-8 ovarian = test system: OVCAR-8 ovarian
CCRF-CEM leukemia = test system: CCRF-CEM leukemia
HL-60(TB) leukemia = test system: HL-60(TB) leukemia
SF-295 CNS = test system: SF-295 CNS
NCI-H522 lung = test system: NCI-H522 lung
OVCAR-3 ovarian = test system: OVCAR-3 ovarian
HOP-92 NSCLC = test system: HOP-92 NSCLC
SF-539 CNS = test system: SF-539 CNS

Row | SMILES | TGI (OVCAR-8 ovarian) [µM] | TGI (CCRF-CEM leukemia) [µM] | TGI (HL-60(TB) leukemia) [µM] | TGI (SF-295 CNS) [µM] | TGI (NCI-H522 lung) [µM] | TGI (OVCAR-3 ovarian) [µM] | TGI (HOP-92 NSCLC) [µM] | TGI (SF-539 CNS) [µM]
1 | COc1ccc(C(=O)C(c2ccc(OC)cc2)C2(O)C(=O)Nc3c2ccc(Cl)c3C)cc1 (stereo not drawn) | > 100 | > 100 | > 100 | > 100 | > 100 | > 100 | – | –
2 | COc1ccc2ccccc2c1C1OC(=O)c2ccccc21 (stereo not drawn) | > 100 | > 100 | > 100 | > 100 | > 100 | > 100 | > 100 | > 100
3 | COc1ccc(OC)c(NC(=O)CCC/C(CC(=O)c2ccc(O)c(OC)c2)=N\Nc2ccc([N+](=O)[O-])cc2)c1 | > 100 | > 100 | > 100 | > 100 | > 100 | > 100 | 85.6 | > 100
4 | COc1cc(C2C(Cl)C(=O)N2NC(=O)c2ccc(N)cc2)ccc1O (stereo not drawn) | 47.4 | 47.3 | > 100 | > 100 | 35 | 39 | 52.8 | 62.1
5 | CCOC(=O)NC(=O)c1cn(CCCCCCOC(=O)NCCCCCCNC(=O)OCCCCCCn2cc(C(=O)NC(=O)OCC)c(=O)[nH]c2=O)c(=O)[nH]c1=O | > 100 | > 100 | > 100 | > 100 | > 100 | > 100 | – | > 100
6 | O=S1(=O)OCCOS(=O)(=O)C1Cc1ccccc1 | > 100 | – | 54.5 | > 100 | > 100 | 44.9 | > 100 | 95.6
7 | COC(=O)CCC(NC(=S)N/N=C/c1ccco1)C(=O)OC (stereo not drawn) | > 100 | > 100 | > 100 | > 100 | > 100 | > 100 | – | > 100
8 | COC(=O)C1=CC2C(=O)OC1CC2C#N (stereo not drawn) | > 100 | > 100 | > 100 | > 100 | > 100 | > 100 | > 100 | > 100
9 | O=C(c1ccccc1)c1cccc(C(=O)c2ccccc2)c1 | > 100 | > 100 | – | > 100 | > 100 | > 100 | > 100 | > 100
10 | CC(=O)C1C(=O)C(=O)N(c2ccccc2C(C)C)C1=O (stereo not drawn) | > 100 | > 100 | > 100 | > 100 | > 100 | > 100 | > 100 | > 100
11 | CC1=C2C(=CC(C)(C)C2O)C(=O)C(C)(O)C12CC2 (stereo not drawn) | 0.0499 | 0.126 | 0.0149 | 0.0342 | 0.017 | 0.0494 | 0.0526 | 0.0604
12 | C[C@]12CCC3[C@@H](CC[C@@H]4c5nonc5CC[C@]34C)C1C/C(=N/O)C2=O (stereo partly drawn) | > 100 | > 100 | 13.3 | > 100 | > 100 | > 100 | > 100 | > 100
13 | C[Si](C)(C)c1ccc(-c2sc(-c3ccc([Si](C)(C)C)s3)c3c2C[Si]2(C3)Cc3c(-c4ccc([Si](C)(C)C)s4)sc(-c4ccc([Si](C)(C)C)s4)c3C2)s1 | > 100 | > 100 | > 100 | > 100 | > 100 | > 100 | > 100 | > 100
14 | CN(/N=C/c1cccc2cccnc12)c1ccccc1 | > 100 | > 100 | > 100 | > 100 | > 100 | 68 | > 100 | > 100
15 | COc1ccc(C(C#N)Cc2cc(OC)c(OC)c(OC)c2)cc1 (stereo not drawn) | > 100 | > 100 | 64.3 | 54.4 | 71.9 | > 100 | > 100 | > 100
16 | N#CC(c1nc2ccccc2nc1Cl)S(=O)(=O)c1ccccc1 (stereo not drawn) | > 100 | > 100 | > 100 | – | > 100 | > 100 | 70.1 | > 100
17 | Cc1[nH]c2ccccc2c1C1Cc2ccccc2N1C(=O)/C=C/C(=O)O (stereo not drawn) | > 100 | > 100 | > 100 | > 100 | > 100 | > 100 | – | > 100
18 | COC(=O)c1cc(Cl)ccc1NC(=O)c1ccc([N+](=O)[O-])cc1 | 63.9 | 80.4 | > 100 | 6.1 | – | 31.4 | – | 49.1
19 | Cc1ccccc1NC(=O)C(=O)CC(=O)c1c(C)n([O-])c2ccccc2[n+]1=O | > 100 | – | – | > 100 | – | > 100 | – | > 100
20 | COc1ccc(/C=N/N=C(\N)NO)c(OC)c1 | > 100 | > 100 | – | 70.7 | – | > 100 | > 100 | > 100
21 | COc1ccc(OC)c2c1C(=O)C1CC1(Br)C2=O (stereo not drawn) | > 100 | > 100 | > 100 | > 100 | > 100 | > 100 | – | > 100
22 | O=CC1CCCc2ccccc21 (stereo not drawn) | > 100 | > 72 | > 100 | > 100 | > 100 | > 100 | > 100 | –
